Assay results published in the supplement of paper PMC10307832.

Experiments:
Assay in all cases: relative viability (nuclei count vs DMSO), 5 days (fraction); higher = more cells survive
Dabrafenib + Lapatinib = compound: CC(C)(C)c1nc(-c2cccc(NS(=O)(=O)c3c(F)cccc3F)c2F)c(-c2ccnc(N)n2)s1 [Dabrafenib] + CS(=O)(=O)CCNCc1ccc(-c2ccc3ncnc(Nc4ccc(OCc5cccc(F)c5)c(Cl)c4)c3c2)o1 [Lapatinib] (partner 2 µM)
Summary of the method: (§1)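 Relative viability divides the nuclei count in treated wells by that in vehicle wells. Lung cancer cell lines were seeded in 1536-well plates, dosed by pin tool the next day, and fixed and stained after 5 days in one step with final 0.05% Triton X-100, 1% formaldehyde and 1 ug/ml Hoechst. Dosing was a single drug or a fixed anchor-drug dose plus five library-drug doses (not always all listed) in √10 steps, and values are medians of duplicate plates imaged at 4×.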

VX-702 + Alpelisib = compound: NC(=O)c1ccc(N(C(N)=O)c2c(F)cccc2F)nc1-c1ccc(F)cc1F [VX-702] + Cc1nc(NC(=O)N2CCC[C@H]2C(N)=O)sc1-c1ccnc(C(C)(C)C(F)(F)F)c1 [Alpelisib] (partner 2 µM)
Summary of the method: as §1

VX-702 + Olaparib = compound: NC(=O)c1ccc(N(C(N)=O)c2c(F)cccc2F)nc1-c1ccc(F)cc1F [VX-702] + O=C(c1cc(Cc2n[nH]c(=O)c3ccccc23)ccc1F)N1CCN(C(=O)C2CC2)CC1 [Olaparib] (partner 8 µM)
Summary of the method: as §1

VX-702 + Tozasertib = compound: NC(=O)c1ccc(N(C(N)=O)c2c(F)cccc2F)nc1-c1ccc(F)cc1F [VX-702] + Cc1cc(Nc2cc(N3CCN(C)CC3)nc(Sc3ccc(NC(=O)C4CC4)cc3)n2)n[nH]1 [Tozasertib] (partner 0.1 µM)
Summary of the method: as §1

Row | Cell Line | relative viability (Dabrafenib + Lapatinib; first compound 0.003 µM) | relative viability (Dabrafenib + Lapatinib; first compound 0.009487 µM) | relative viability (Dabrafenib + Lapatinib; first compound 0.03 µM) | relative viability (Dabrafenib + Lapatinib; first compound 0.09487 µM) | relative viability (Dabrafenib + Lapatinib; first compound 0.3 µM) | relative viability (VX-702 + Alpelisib; first compound 0.02 µM) | relative viability (VX-702 + Alpelisib; first compound 0.2 µM) | relative viability (VX-702 + Alpelisib; first compound 0.6325 µM) | relative viability (VX-702 + Alpelisib; first compound 2 µM) | relative viability (VX-702 + Olaparib; first compound 0.02 µM) | relative viability (VX-702 + Olaparib; first compound 0.2 µM) | relative viability (VX-702 + Olaparib; first compound 0.6325 µM) | relative viability (VX-702 + Olaparib; first compound 2 µM) | relative viability (VX-702 + Tozasertib; first compound 0.02 µM) | relative viability (VX-702 + Tozasertib; first compound 0.2 µM) | relative viability (VX-702 + Tozasertib; first compound 0.6325 µM) | relative viability (VX-702 + Tozasertib; first compound 2 µM)
1 | UMC-11 | 1.01 | 1.08 | 0.812 | 1.08 | 0.959 | 0.954 | 0.973 | 0.955 | 1.29 | 0.346 | 0.352 | 0.368 | 0.269 | 0.202 | 0.207 | 0.186 | 0.198
2 | NCI-H1437 | 0.687 | 0.756 | 0.911 | 0.785 | 0.816 | 0.943 | 0.858 | 0.911 | 1.14 | 0.656 | 0.633 | 0.643 | 0.691 | 0.412 | 0.432 | 0.405 | 0.45
3 | EKVX | 0.172 | 0.245 | 0.192 | 0.203 | 0.321 | 0.814 | 0.801 | 0.73 | 0.855 | 0.726 | 0.869 | 0.906 | 0.974 | 0.381 | 0.36 | 0.379 | 0.423
4 | COR-L 105 | 0.273 | 0.367 | 0.3 | 0.375 | 0.426 | 1.08 | 0.947 | 0.868 | 1.24 | 0.633 | 0.658 | 0.768 | 0.859 | 0.225 | 0.338 | 0.353 | 0.355
5 | NCI-H650 | – | 1.1 | 0.623 | 0.514 | 0.435 | 1.11 | – | 1.15 | 1.34 | 0.435 | 0.433 | 0.452 | 0.456 | 0.662 | – | 0.801 | 0.893
6 | NCI-H1648 | – | – | – | – | – | – | – | – | – | 0.817 | 0.851 | 0.689 | 0.781 | 0.419 | 0.42 | 0.397 | 0.426
7 | NCI-H2009 | 0.311 | 1 | 0.872 | 0.606 | 0.484 | 1.21 | 1.22 | 1.24 | 1.35 | 0.751 | 0.705 | 0.739 | 0.842 | 0.765 | 0.729 | 0.728 | 0.988
8 | LXF-289 | 0.867 | 0.907 | 1.11 | 1 | 1.09 | 1.07 | 1.03 | 1.01 | 1.05 | 1.08 | 1.07 | 1.06 | 1.1 | 0.208 | 0.188 | 0.214 | 0.175
9 | NCI-H647 | – | 1.24 | 0.812 | 1.01 | 0.893 | 1.29 | 1 | 1.08 | 1.14 | 0.752 | 0.509 | 0.427 | 0.744 | 0.323 | 0.248 | 0.208 | 0.436
10 | NCI-H1666 | 0.547 | – | 0.623 | 0.629 | 0.745 | 1 | 0.862 | 0.88 | 0.909 | 0.804 | 0.754 | 0.826 | 0.733 | 0.593 | – | 0.586 | 0.583
11 | NCI-H1734 | – | 1.02 | 0.629 | 0.747 | 0.785 | 0.626 | 0.596 | 0.588 | 0.559 | 0.637 | 0.547 | 0.51 | 0.523 | 0.277 | 0.248 | 0.236 | 0.222
12 | BEN | – | 0.805 | – | 0.81 | 0.841 | 0.823 | 0.912 | 0.919 | 1.18 | 0.781 | 0.89 | 0.991 | 1.06 | 0.532 | 0.432 | 0.481 | 0.55
13 | PC-3 [JPC-3] | 0.448 | 0.509 | 0.416 | 0.434 | 0.429 | 1.02 | 1.06 | 1.07 | 1.02 | 1.2 | 1.14 | 1.16 | 1.31 | 0.883 | 0.896 | 0.922 | 0.957
14 | NCI-H2228 | 0.856 | 1.2 | 1.01 | 1.01 | 1.14 | 0.826 | 0.64 | 0.753 | 0.856 | 0.866 | 0.794 | 0.754 | 0.864 | 0.314 | 0.319 | 0.199 | 0.23
15 | HOP-62 | – | 1.07 | 0.822 | 0.889 | 0.784 | 1.12 | 1.17 | 1.06 | 1.19 | 0.478 | 0.611 | 0.553 | 0.65 | 0.474 | 0.37 | 0.41 | 0.373
16 | H3255 | 0.186 | 0.264 | 0.213 | 0.316 | 0.247 | 0.727 | 0.78 | 0.723 | 0.907 | 0.578 | 0.53 | 0.558 | 0.594 | 0.576 | 0.792 | 0.655 | 0.8
17 | 201T | 1.06 | 1.04 | 1.01 | 1.03 | 1.09 | 0.997 | 1.04 | 1.03 | 1.02 | 0.832 | 0.882 | 0.894 | 0.898 | 0.959 | 0.921 | 0.937 | 0.914
